Measured values taken from patent US11542239B2, “Elagolix sodium compositions and processes” (AbbVie Inc., priority 2018, dated 2023).

Assays:
Format in all cases: physicochemical
[1] = Flow properties, Schulze ring shear tester (flow function coefficient); conditions: isolated amorphous elagolix sodium powder, ffc=σ/fc
Method: Flow properties of each sample were characterized using a Schulze ring shear tester RST-XS (Dietmar Schulze Schuttgutmesstechnik, Wolfenbiittel, Germany). A standard annular cell of a cross-sectional area of 24 cm^2 and a volume of 30 cm^3 is used to measure the yield loci. All experiments were performed under ambient conditions immediately after the sample was removed from the sample container. During each measurement, the powder sample was first pre-sheared under a pre-consolidation stress of 1 kPa until a steady-state was reached. The pre-sheared powder was then subjected to shear under four normal stress levels of […] to obtain the yield locus (plot of shear stress at failure as a function of the normal stress). Between each shear points, the sample was pre-consolidated at 1 kPa. From the yield locus, the major principle stress (σ) and unconfined yield strength (fc) were derived by drawing two critical Mohr stress circles with the software RST-CONTROL 95 (Dietmar Schulze Schuttgiit-messtechnik, Wolfenbiittel, Germany). The major principle stress (σ) was obtained from the Mohr stress circle which is tangential to the yield locus and intersects at the point of normal and shear stresses at steady state flow. The unconfined yield strength (fc) was obtained from the Mohr stress circle which is tangential to the yield locus and runs through the origin. Flow function coefficient (ffc=σ/fc) was used to characterize the flow of the powder sample.

[2] = Dry glass transition temperature of amorphous form
[3] = Bulk density in a graduated cylinder; conditions: isolated amorphous elagolix sodium powder
Method: The bulk density of the sample was obtained by measurement in a graduated cylinder. A 50 mL graduated cylinder (readable to 1 mL) was used in all measurement. First, the tared weight of the cylinder was obtained with a balance (readable to ±0.01 g). Sufficient amount of sample was then transferred into the cylinder, gently to avoid compaction of the sample, to a volume between 30 and 50 mL. The total weight of the sample and cylinder was then measured with the balance (readable to ±0.01 g), and the net sample weight was calculated. The bulk density is the weight of the sample divided by the apparent volume (to the nearest graduated unit).

[4] = BET specific surface area from nitrogen adsorption isotherm; conditions: isolated amorphous elagolix sodium powder, precipitation/isolation conditions vary per example
Method: The BET (Brunauer, Emmett and Teller) specific surface area was determined from nitrogen adsorption isotherm at 77° K using a surface area analyzer (Tristar 3020, Micromeritics, Norcross, Ga.). A sample of approximately 1-2 g was first outgassed under vacuum for 2 hours at 50° C. prior to nitrogen adsorption experiment. The multipoint measurement method was used according to USP <846>. The quantity adsorbed was measured between 0.05 and 0.3 relative pressure. A minimum of 5 data points between this pressure range was determined to obtain the specific surface area using the BET equation.

[5] = Particle size distribution by laser diffraction (wet dispersion); conditions: isolated amorphous elagolix sodium powder
Method: Particle size distribution was measured by laser diffraction using a Malvern Mastersizer 2000S (Malvern Panalytical Ltd., Malvern, United Kingdom) in the wet dispersion mode. The liquid dispersion accessory was first filled with a solution of 0.025% w/v lecithin in HPLC n-heptane. After laser background intensity was measured, approximately 40 mg of sample was added directly to the liquid dispersion accessory to obtain a target laser obscuration between 5 and 22%. Particle size distribution measurement was started immediately upon addition of the sample. The following method parameters were used: Calculation theory—Mie; Measurement model—general purpose; Measurement sensitivity—normal; Dispersant refractive index—1.39; Background time—30 s; Measurement time—30 s; Stirrer speed—1500 rpm; Measurement cycle—1.

For `COc1cccc(-c2c(C)n(Cc3c(F)cccc3C(F)(F)F)c(=O)n(C[C@H](NCCCC(=O)[O-])c3ccccc3)c2=O)c1F.[Na+]` [Compound (I), sodium 4-({(1R)-2-[5-(2-fluoro-3-methoxyphenyl)-3-{[2-fluoro-6-(trifluoromethyl)phenyl]methyl}-4-methyl-2,6-dioxo-3,6-dihydropyrimidin-1(2H)-yl]-1-phenylethyl}amino)butanoate], the “flow function coefficient (ffc)” value ([1]; listed as Example 14) was 1.8, the “flow function coefficient (ffc)” value ([1]; listed as Example 15) was 2.8 and the “flow function coefficient (ffc)” value ([1]; listed as Example 17) was 1.2. For the same compound, the “flow function coefficient (ffc)” value ([1]; listed as Example 18) was 6.8, the “dry glass transition temperature (Tg)” value [2] was “about 108 °C” and the bulk density ([3]; listed as Example 17) was 0.17 g/mL. For the same compound, the bulk density ([3]; listed as Example 18) was 0.33 g/mL, the specific surface area ([4]; listed as Example 14) was 10.4 m^2/g and the specific surface area ([4]; listed as Example 15) was 49.0 m^2/g. For the same compound, the specific surface area ([4]; listed as Example 16) was 0.3 m^2/g, the specific surface area ([4]; listed as Example 17) was 35.3 m^2/g and the specific surface area ([4]; listed as Example 18) was 32.2 m^2/g. The “volume-averaged particle size Dv10” value ([5]; listed as Example 14) was 9 μm, the “volume-averaged particle size Dv10” value ([5]; listed as Example 15) was 17 μm and the “volume-averaged particle size Dv10” value ([5]; listed as Example 17) was 6 μm. For the same compound, the “volume-averaged particle size Dv10” value ([5]; listed as Example 18) was 204 μm.
